# Source: patent US11667651B2, “Aminopyridine derivatives as phosphatidylinositol phosphate kinase inhibitors” (HiberCell, Inc., priority 2017, dated 2023)
# Assays:
# Format in all cases: biochemical
# PIP4K2B = molecular target: T1, PIP4K2B (Homo sapiens, UniProt P78356); experiment: Trans-FI P kinase assay PIP4K2B (Table 4); details: compounds listed under IC50 bins; read-out: Trans-FI P kinase assays: PIP4K2B IC50
# T1 construct: made in house; host or cells: E. coli
# T1 sequence (P78356 1-416): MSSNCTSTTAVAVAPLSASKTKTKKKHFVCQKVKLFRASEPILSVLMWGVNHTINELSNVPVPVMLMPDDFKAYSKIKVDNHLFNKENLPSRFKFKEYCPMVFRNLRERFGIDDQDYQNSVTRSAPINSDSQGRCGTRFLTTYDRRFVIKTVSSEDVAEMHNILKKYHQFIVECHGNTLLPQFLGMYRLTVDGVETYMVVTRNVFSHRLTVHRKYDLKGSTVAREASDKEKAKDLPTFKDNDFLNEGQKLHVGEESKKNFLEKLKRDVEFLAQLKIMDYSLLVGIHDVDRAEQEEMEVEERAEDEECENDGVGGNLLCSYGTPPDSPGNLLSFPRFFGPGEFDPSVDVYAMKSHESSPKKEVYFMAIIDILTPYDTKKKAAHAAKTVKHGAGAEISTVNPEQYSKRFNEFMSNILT
# Summary of the method: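 Transcreener FI detection (Ex 584/Em 623) of GDP, converted via calibration curve, gives IC50 from residual activity versus log concentration (highest 4.8 μM). Reaction: 80 μM PI5P plus DOPE carrier, 100 μM GTP, 5 nM GST-tagged enzyme, pH 7.3 HEPES with MgCl2 and 5% DMSO, 2 h after 1 h enzyme-compound preincubation at 27° C.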
# PIP4K2A [1] = molecular target: T2, PIP4K2A (Homo sapiens, UniProt P48426); experiment: ADP-glo kinase assay PIP4K 2A (Table 3); set-up: made in house; host or cells: E. coli; details: compounds listed under IC50 bins
# T2 sequence (P48426 1-406): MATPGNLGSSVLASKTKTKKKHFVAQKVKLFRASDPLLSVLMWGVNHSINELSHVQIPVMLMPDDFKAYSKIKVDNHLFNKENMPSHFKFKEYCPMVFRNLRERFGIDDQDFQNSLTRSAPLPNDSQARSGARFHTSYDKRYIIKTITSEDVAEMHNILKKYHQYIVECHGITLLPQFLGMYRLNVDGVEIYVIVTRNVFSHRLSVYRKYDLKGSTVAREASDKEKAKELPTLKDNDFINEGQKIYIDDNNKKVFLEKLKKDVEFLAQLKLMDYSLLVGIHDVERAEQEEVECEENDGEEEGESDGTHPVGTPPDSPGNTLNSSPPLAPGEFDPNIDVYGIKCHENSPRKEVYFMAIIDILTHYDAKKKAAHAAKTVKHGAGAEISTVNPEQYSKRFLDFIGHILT
# Summary of the method: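 ADP-Glo luminescence detected ADP after 1 h RT reaction started by ATP (60 μM solution) on full-length PIP4K2A (4 nM in mix) and PI(5)P diC8 (100 μM in mix), preceded by 15 min enzyme-compound preincubation in MOPS pH 7.2/25 mM MgCl2. Percent inhibition versus DMSO over 10 concentrations fitted for IC50.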
# PIP4K2A [2] = molecular target: T2, PIP4K2A; experiment: Kinase Assay PIP4K2 A (Table 2); set-up: 4 nM PIP4K2A (full length protein, SignalChem); purchased SignalChem; details: compounds listed under IC50 bins
# Summary of the method: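 ADP-Glo luminescent read-out after 1 h room-temperature kinase reaction, started with 60 μM ATP solution following 15 min compound pre-incubation. Enzyme/substrate mix: 4 nM full-length PIP4K2A plus 100 μM PI(5)P diC8; buffer MOPS pH 7.2 with 25 mM MgCl2 and Tween 20. IC50 from 10-point, 3-fold titrations normalized to DMSO.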
IC50 (PIP4K2B),IC50 (PIP4K2A [1]),IC50 (PIP4K2A [2]),Compound
10 to 100 nM,10 to 100 nM,1 to 10 nM,"CN(C)C/C=C/C(=O)Nc1cccc(C(=O)Nc2cncc(Nc3ccc(-c4ccc(C(=O)N(C)C)cc4)cn3)c2)c1 [Example 100, (E)-4-(6-((5-(3-(4-(dimethylamino)but-2-enamido)benzamido)pyridin-3-yl)amino)pyridin-3-yl)-N,N-dimethylbenzamide]"
10 to 100 nM,10 to 100 nM,1 to 10 nM,"COc1cccc(C(=O)Nc2cncc(Nc3ccc(-c4ccc(C(=O)N(C)C)cc4)cn3)c2)c1 [Example 141, 4-(6-((5-(3-methoxybenzamido)pyridin-3-yl)amino)pyridin-3-yl)-N,N-dimethylbenzamide]"
10 to 100 nM,1 to 10 nM,1 to 10 nM,"O=C1CCCN1c1ccc(-c2ccc(Nc3cnc4c(c3)N(C(=O)C3CC3)CCO4)nc2)cc1 [Example 150, 1-(4-(6-((1-(cyclopropanecarbonyl)-2,3-dihydro-1H-pyrido[2,3-b][1,4]oxazin-7-yl)amino)pyridin-3-yl)phenyl)pyrrolidin-2-one]"
10 to 100 nM,10 to 100 nM,10 to 100 nM,"CN(C)C(=O)c1ccc(-c2ccc(Nc3cncc(NC(=O)c4ccc5ncoc5c4)c3)nc2)cc1 [Example 136, N-(5-((5-(4-(dimethylcarbamoyl)phenyl)pyridin-2-yl)amino)pyridin-3-yl)benzo[d]oxazole-6-carboxamide]"
